Reference: patent US7825151B2, “Hexahydro-cyclooctyl pyrazole cannabinoid modulators” (priority 2005, dated 2010)
Several values for one entry are separate records, joined by “and”; a condition that tells them apart may be missing. Equal entries are not always repeated.

Tests used:
human CB1 receptor [1] = target: T1, human CB1 receptor (Homo sapiens, UniProt P21554); assay: Binding assay for CB1 ([3H]-CP-55,940 displacement, SK-N-MC membranes); conditions: for inhibition at 10 µM: test concentration 10 μM (footnote 1), read-out: CB1 receptor binding percent inhibition
T1 construct: expressed in transfected cells; host or cells: SK-N-MC cells, stably transfected with pcDNA3 CB-1 (human)
Protocol: (§1) The human CB1 and CB2 receptors were stably expressed in SK-N-MC cells transfected with pcDNA3 CB-1 (human) or pcDNA3 CB-2 (human). The cells were grown in T-180 cell culture flasks under standard cell culture conditions at 37° C. in a 5% CO2 atmosphere. The cells were harvested by trysinization and homogenized in a homogenization buffer (10 mM Tris, 0.2 mM MgCl2, 5 mM KCl, with protease inhibitors aprotinin, leupeptin, pepstatin A and bacitracin) and centrifuged (2000 g). The supernatant was then centrifuged in 2M sucrose (31,300 g) to produce a semi-purified membrane pellet. The pellet was resuspended in homogenization and stored at −80° C.
(§2) On the day of the assay, the pellet was thawed on ice and diluted in assay buffer (50 mM Tris-HCl, 5 mM MgCl2, 2.5 mM EDTA, 0.5 mg/mL fatty acid free bovine serum albumin, pH 7.5). The diluted membrane pellet was added with buffer, either a test compound or vehicle standard and the radioligand [H]^3+-CP-55,940 (0.2 nM) to the wells of a 96-well polypropylene plate. Non-specific binding was measured in wells containing WIN 55,212 (10 uM). The plate was covered and incubated for 90 minutes at 30° C. The contents were then aspirated onto a Packard Unifilter GF/C filter bottom plate prewet with 0.5% polyethyleneimine. The wells of the polypropylene plate were rinsed and aspirated seven times with a 0.9% saline-0.5% Tween 20 solution. The Unifilter plate was dried, scintillation cocktail was added to each well and the counts representing binding were quantitated in a TopCount scintillation counter.
(§3) For compounds tested, an IC50 binding value was obtained from percent inhibition studies in which various test concentrations were used. The binding value was calculated by linear regression.
(§4) For compounds without an IC50 binding value, the percent inhibition (%) was obtained at a test concentration of ^(1)10 μM, ^(2)1 μM, ^(3)0.2 μM, ^(4)0.003 μM, ^(5) represents an average value.

CB2 receptor [2] = target: T2, CB2 receptor (Homo sapiens, UniProt P34972); assay: Binding assay for CB2 ([3H]-CP-55,940 displacement, SK-N-MC membranes); conditions: Cannabinoid CB2 Receptor Binding IC50, radioligand CP-55,940 0.2 nM; SK-N-MC membranes
T2 construct: expressed in transfected cells; host or cells: SK-N-MC cells, stably transfected with pcDNA3 CB-2 (human)
Protocol: as §1, §2, §3, §4

human CB1 receptor [3] = target: T1, human CB1 receptor; assay: Functional cell-based CRE β-gal assay, CB1 (adenylate cyclase activity); conditions: single test concentration 10 μM (footnote 1)
Excerpt: (§5) The CB1 and CB2 receptors are G-protein coupled receptors (GPCR), which influence cell function via the Gi-protein. These receptors modulate the activity of intracellular adenylate cyclase, which in turn produces the intracellular signal messenger cyclic-AMP (cAMP).
(§6) At baseline, or during non-ligand bound conditions, these receptors are constitutively active and tonically suppress adenylate cyclase activity. The binding of an agonist causes further receptor activation and produces additional suppression of adenylate cyclase activity. The binding of an inverse agonist inhibits the constitutive activity of the receptors and results in an increase in adenylate cyclase activity.
(§7) By monitoring intracellular adenylate cyclase activity, the ability of compounds to act as agonists or inverse agonists can be determined.
(§8) Test compounds were evaluated in SK-N-MC cells which, using standard transfection procedures, were stably transfected with human cDNA for pcDNA3-CRE β-gal and pcDNA3 CB1 receptor (human) or pcDNA3 CB2 receptor (human). By expressing CRE β-gal, the cells produced β-galactosidase in response to CRE promoter activation by cAMP. Cells expressing CRE β-gal and either the human CB1 or CB2 receptor will produce less β-galactosidase when treated with a CB1/CB2 agonist and will produce more β-galactosidase when treated with a CB1/CB2 inverse agonist.
(§9) The cells were grown in 96-well plates under standard cell culture conditions at 37° C. in a 5% CO2 atmosphere. After 3 days, the media was removed and a test compound in media (wherein the media was supplemented with 2 mM L-glutamine, […] sodium pyruvate, 0.1% low fatty acid FBS (fetal bovine serum) and antibiotics) was added to the cell. The plates were incubated for 30 minutes at 37° C. and the plate cells were then treated with forskolin over a 4-6 hour period, then washed and lysed. The β-galactosidase activity was quantitated using commercially available kit reagents (Promega Corp. Madison, Wis.) and a Vmax Plate Reader (Molecular Devices, Inc).
(§10) The change in β-galactosidase activity was determined by setting a vehicle treated cell's activity value at 100% and expressing the β-galactosidase activity measured in a corresponding compound treated cell as a percent of the vehicle treated cell activity.
The EC50 value for functional activity for compounds tested was calculated by linear regression and was obtained from studies in which varying compound concentrations were used. Data provided for certain compounds is represented by percent change (%) in functional activity at a single test concentration: ^(1)10 μM and ^(2)1 μM.

CB2 receptor [4] = target: T2, CB2 receptor; assay: Functional cell-based CRE β-gal assay, CB2 (adenylate cyclase activity)
Excerpt: as §5, §6, §7, §8, §9
For cells expressing CRE β-gal and the CB2 receptor, CB2 agonists reduced β-galactosidase activity in a dose-dependent manner and CB2 inverse agonists increase β-galactosidase activity in a dose-dependent manner.
as §10
The EC50 value for functional activity for compounds tested was calculated by linear regression and was obtained from studies in which varying compound concentrations were used.
The value of 29% for Compound 5 represents change in functional activity and was obtained from a study in which one compound concentration was used.

CB2 receptor [5] = target: T2, CB2 receptor; assay: Modified functional cell-based assay (Beta-Glo luminescence), CB2 agonist
Protocol: Additional functional activity studies were performed with minor modifications. Beta galactosidase activity was quantified using the luminescent Beta-Glo Assay System (Promega Corp. Madison, Wis.) and an Orion Microplate Luminometer (Berthold Detection Systems, Oak Ridge, Tenn.). The EC50 values were calculated using GraphPad Prism and a four parameter logistic equation.

T2 sequence (P34972 whole entry): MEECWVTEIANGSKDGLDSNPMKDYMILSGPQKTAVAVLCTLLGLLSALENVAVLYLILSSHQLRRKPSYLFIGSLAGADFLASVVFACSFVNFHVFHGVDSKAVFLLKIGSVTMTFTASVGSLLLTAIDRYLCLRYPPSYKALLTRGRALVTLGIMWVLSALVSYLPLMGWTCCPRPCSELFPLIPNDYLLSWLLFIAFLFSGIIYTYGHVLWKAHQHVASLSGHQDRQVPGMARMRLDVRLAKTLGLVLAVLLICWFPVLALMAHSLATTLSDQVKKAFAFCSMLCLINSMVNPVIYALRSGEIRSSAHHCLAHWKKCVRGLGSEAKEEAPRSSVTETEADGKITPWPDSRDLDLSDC
T1 sequence (P21554 whole entry): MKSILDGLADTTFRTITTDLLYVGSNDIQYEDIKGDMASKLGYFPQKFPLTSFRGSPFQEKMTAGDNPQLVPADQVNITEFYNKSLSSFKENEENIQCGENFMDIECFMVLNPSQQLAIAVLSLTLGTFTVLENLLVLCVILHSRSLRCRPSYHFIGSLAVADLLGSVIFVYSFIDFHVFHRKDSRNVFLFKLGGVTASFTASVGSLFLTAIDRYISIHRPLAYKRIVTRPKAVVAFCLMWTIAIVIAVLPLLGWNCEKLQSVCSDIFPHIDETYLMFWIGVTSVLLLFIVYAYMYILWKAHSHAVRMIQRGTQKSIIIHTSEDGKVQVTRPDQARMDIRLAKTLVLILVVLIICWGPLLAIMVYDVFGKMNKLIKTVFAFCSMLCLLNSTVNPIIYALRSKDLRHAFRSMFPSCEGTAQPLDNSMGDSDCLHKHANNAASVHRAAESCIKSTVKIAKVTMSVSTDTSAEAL

Compound | inhibition at 10 µM (human CB1 receptor [1]) [%] | IC50 (CB2 receptor [2]) | CB1 receptor percent change in functional activity (human CB1 receptor [3]) | CB2 receptor change in functional activity (CB2 receptor [4]; one compound concentration) [%] | EC50 (CB2 receptor [5]) [nM] | IC50 (human CB1 receptor [1]; Cannabinoid CB1 Receptor Binding IC50, radioligand CP-55,940 0.2 nM, SK-N-MC membranes) [nM] | EC50 (CB2 receptor [4]) [nM]
CC(NC(=O)c1nn(C2CCCC2)c2c1CCCCCC2)C12CC3CC(CC(C3)C1)C2 (stereo not shown) [Cpd 5, 1-cyclopentyl-4,5,6,7,8,9-hexahydro-1H-cyclooctapyrazole-3-carboxylic acid (1-adamantan-1-yl-ethyl)-amide] | 47 | 100 nM | ^(1)10% | 29 | – | – | –
O=C(N[C@@H](CO)c1ccccc1)c1n[nH]c2c1CCCCC/C2=C\c1cccc(Cl)c1 [Cpd 31, (9E)-(3-chloro-benzylidene)-4,5,6,7,8,9-hexahydro-1H-cyclooctapyrazole-3-carboxylic acid [(1R)-2-hydroxy-1-phenyl-ethyl]-amide] | – | – | – | – | 18 | – | –
CC12CCC(C1)C(C)(C)C2NC(=O)c1nn(C2CCCCC2)c2c1CCCCCC2 (stereo not shown) [Cpd 1, 1-cyclohexyl-4,5,6,7,8,9-hexahydro-1H-cyclooctapyrazole-3-carboxylic acid (1,3,3-trimethyl-bicyclo[2.2.1]hept-2-yl)-amide] | – | 0.1 nM and 0.09 nM | ^(1)−78% | – | – | 40 | 1.6
O=C(NCC12CC3CC(CC(C3)C1)C2)c1nn(C2CCCC2)c2c1CCCCCC2 [Cpd 3, 1-cyclopentyl-4,5,6,7,8,9-hexahydro-1H-cyclooctapyrazole-3-carboxylic acid (adamantan-1-ylmethyl)-amide] | 45 | 20 nM | ^(1)−6% | – | – | – | 200
